Measurements from US20260125400A1, “TYK2 DEGRADERS AND USES THEREOF” (Kymera Therapeutics, Inc., priority 2023, published 2026).
Read-outs that look alike come from different tables or passages of the source.

Molecular target: T1, TYK2 (Homo sapiens, UniProt P29597)
T1 construct: Degradation of TYK2 in cells was quantitatively measured using Meso Scale Discovery (MSD) technology; endogenous in cells; host or cells: OCI-LY10
Assay: TYK2 MSD degradation in OCI-LY10 cells
Type: cell-based
Settings: 4 to 24 hours incubation; for DC50: read-out: TYK2 MSD OCI-LY10 Rel-DC50
Summary of the method: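 OCI-LY10 cells were treated with 9-dose 1:3 series (top 1 to 10 μM final) for 4 to 24 hours at 37° C. Lysate TYK2 quantified by MSD sandwich immunoassay; DC50 and Dmax from four-parameter inhibitor vs. response fit.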

[1] = TYK2 degradation in OCI-LY10 cells

T1 sequence (P29597 whole entry): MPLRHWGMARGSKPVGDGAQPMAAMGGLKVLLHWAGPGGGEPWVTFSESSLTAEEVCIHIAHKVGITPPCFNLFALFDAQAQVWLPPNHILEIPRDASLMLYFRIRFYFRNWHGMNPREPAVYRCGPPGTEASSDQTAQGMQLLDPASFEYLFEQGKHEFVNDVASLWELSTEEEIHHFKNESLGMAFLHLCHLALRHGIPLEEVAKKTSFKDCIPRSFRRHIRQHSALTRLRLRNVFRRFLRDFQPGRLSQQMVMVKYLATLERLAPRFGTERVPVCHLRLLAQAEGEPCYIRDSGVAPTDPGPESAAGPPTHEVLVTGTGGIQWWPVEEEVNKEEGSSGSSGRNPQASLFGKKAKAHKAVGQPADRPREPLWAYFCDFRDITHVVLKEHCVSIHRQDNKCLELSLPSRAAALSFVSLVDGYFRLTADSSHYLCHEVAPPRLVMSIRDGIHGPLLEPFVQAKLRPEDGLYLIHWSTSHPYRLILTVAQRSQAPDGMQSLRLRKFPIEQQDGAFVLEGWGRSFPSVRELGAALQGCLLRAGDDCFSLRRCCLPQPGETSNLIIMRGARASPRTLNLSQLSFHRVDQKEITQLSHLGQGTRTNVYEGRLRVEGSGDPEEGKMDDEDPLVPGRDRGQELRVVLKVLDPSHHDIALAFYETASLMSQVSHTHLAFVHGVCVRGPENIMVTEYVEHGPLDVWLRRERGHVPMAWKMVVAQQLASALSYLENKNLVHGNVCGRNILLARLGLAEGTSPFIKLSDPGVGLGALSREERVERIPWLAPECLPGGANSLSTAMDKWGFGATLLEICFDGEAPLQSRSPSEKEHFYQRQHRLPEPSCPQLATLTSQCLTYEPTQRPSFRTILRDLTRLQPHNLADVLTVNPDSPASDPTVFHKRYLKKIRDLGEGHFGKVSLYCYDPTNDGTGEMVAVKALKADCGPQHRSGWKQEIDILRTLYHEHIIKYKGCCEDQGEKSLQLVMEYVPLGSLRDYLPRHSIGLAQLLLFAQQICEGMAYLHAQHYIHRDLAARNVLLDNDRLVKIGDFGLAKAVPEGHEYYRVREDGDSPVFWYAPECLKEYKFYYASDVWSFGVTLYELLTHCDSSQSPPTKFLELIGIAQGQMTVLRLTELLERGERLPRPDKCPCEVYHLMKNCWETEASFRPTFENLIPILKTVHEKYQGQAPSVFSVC

CNC(=O)c1cnc(Nc2ccc(C(=O)NCCOCCOCCN(C(=O)[C@H]3CCCN(c4cncc5ccccc45)C3)c3ccc(=O)n(CC(=O)O)c3)cn2)cc1Nc1cccc(-c2ncccn2)c1OC [I-915, (S)-2-(5-(1-(isoquinolin-4-yl)-N-(2-(2-(2-(6-((4-((2-methoxy-3-(pyrimidin-2-yl)phenyl)amino)-5-(methylcarbamoyl)pyridin-2-yl)amino)nicotinamido)ethoxy)ethoxy)ethyl)piperidine-3-carboxamido)-2-oxopyridin-1(2H)-yl)acetic acid]
Dmax [1]: 50 to 75% | DC50 [1]: 10 to 100 nM

CNc1cc(N2CCc3c(-c4ccc(CN5CC6(CCN(C(=O)c7ccc(Cl)c(N8CCC(=O)NC8=O)c7)CC6(F)F)C5)cn4)cc(C(F)(F)F)cc32)nn2c(C(=O)N[C@@H]3C[C@@H]3F)cnc12 [I-856]
TYK2 MSD OCI-LY10 Dmax % [1]: C (C (75 to 50%)) | DC50 [1]: 10 to 100 nM

CNc1cc(N2CCc3c(-c4ccc(CN5CCC6(CCN(C(=O)c7ccc(Cl)c(N8CCC(=O)NC8=O)c7)CC6)C(F)(F)C5)cn4)cccc32)nn2c(C(=O)N[C@H]3CC[C@@H]3C(F)(F)F)cnc12 [I-1103]
TYK2 MSD OCI-LY10 Dmax % [1]: D (D (<50%)) | DC50 [1]: 10 to 100 nM

CNc1cc(N2CCc3c(-c4ccc(CC5(F)CC6(CCN(C(=O)c7cc(N8CCC(=O)NC8=O)c(C)cc7F)CC6)C5)cn4)cccc32)nn2c(C(=O)N[C@@H]3CC[C@H]3OC)cnc12 [I-1121]
TYK2 MSD OCI-LY10 Dmax % [1]: A (A (>90%)) | DC50 [1]: < 1 nM

CNc1cc(N2CCc3c(-c4ccc(CN5CCC6(CCN(C(=O)c7cc(C)c(Cl)c(N8CCC(=O)NC8=O)c7)CC6)C(F)(F)C5)cn4)cccc32)nn2c(C(=O)NC3CCC3(F)F)cnc12 (stereo not shown) [I-996]
TYK2 MSD OCI-LY10 Dmax % [1]: B (B (90 to >75%)) | DC50 [1]: < 10 nM

CNc1cc(N2CCc3c(CN4CCC(N5CCC6(CCN(C(=O)c7ccc(Cl)c(N8CCC(=O)NC8=O)c7)CC6)CC5)C(F)(F)C4)cccc32)nn2c(C(=O)N[C@@H]3C[C@@H]3F)cnc12 (stereo partly shown) [I-361]
TYK2 MSD OCI-LY10 Dmax % [1]: B (B (90 to >75%)) | DC50 [1]: < 1 nM

CNc1cc(N2CCc3c(-c4ccc(CN5CCC6(CCN(C(=O)c7cc(C)c(C)c(N8CCC(=O)NC8=O)c7)CC6)C(F)(F)C5)cn4)cccc32)nn2c(C(=O)N[C@@H]3C[C@@H]3F)cnc12 [I-797]
TYK2 MSD OCI-LY10 Dmax % [1]: A (A (>90%)) | DC50 [1]: < 1 nM

CNc1cc(N2CCc3c(CN4CCC(N5CCC6(CCN(C(=O)c7cc(C)c(C)c(N8CCC(=O)NC8=O)c7)CC6)CC5)C(F)(F)C4)cccc32)nn2c(C(=O)N[C@@H]3CC[C@H]3OC)cnc12 (stereo partly shown) [I-995]
TYK2 MSD OCI-LY10 Dmax % [1]: A (A (>90%)) | DC50 [1]: < 1 nM

CNc1cc(N2CCc3c(-c4ncc(C(=O)N5CC6(CCN(C(=O)c7cc(C)c(Cl)c(N8CCC(=O)NC8=O)c7)CC6)C5)cc4F)cccc32)nn2c(C(=O)N[C@@H]3CC[C@H]3OC)cnc12 [I-1140]
TYK2 MSD OCI-LY10 Dmax % [1]: A (A (>90%)) | DC50 [1]: < 1 nM

CNC(=O)c1cnc(Nc2ccc(C(=O)NCCOCCOCCOCCOCCN(C(=O)C3CCCN(c4cncc5ccccc45)C3)c3ccc(=O)n(CC(=O)O)c3)cn2)cc1Nc1cccc(-c2ncccn2)c1OC (stereo not shown) [I-920]
TYK2 MSD OCI-LY10 Dmax % [1]: D (D (<50%)) | DC50 [1]: > 100 nM

CNc1cc(N2CCc3c(CN4CC[C@H](N5CCC6(CCN(C(=O)c7cc(Cl)c(Cl)c(N8CCC(=O)NC8=O)c7)CC6)CC5)C(F)(F)C4)cccc32)nn2c(C(=O)N[C@@H]3CC[C@H]3OC)cnc12 [I-1146]
TYK2 MSD OCI-LY10 Dmax % [1]: A (A (>90%)) | DC50 [1]: < 1 nM

CNc1cc(N2CCc3c(-c4ccc(CN5CC6(CCN(Cc7ccc(Cl)c(C8CCC(=O)NC8=O)c7)CC6(F)F)C5)cn4)cccc32)nn2c(C(=O)N[C@@H]3C[C@@H]3F)cnc12 (stereo partly shown) [I-365]
TYK2 MSD OCI-LY10 Dmax % [1]: C (C (75 to 50%)) | DC50 [1]: < 10 nM

CNc1cc(N2CCc3c(CN4CCC(N5CCC(OCC#Cc6cccc7c6n(C)c(=O)n7C6CCC(=O)NC6=O)CC5)C(F)(F)C4)cccc32)nn2c(C(=O)N[C@@H]3C[C@@H]3F)cnc12 (stereo partly shown) [I-372]
TYK2 MSD OCI-LY10 Dmax % [1]: D (D (<50%)) | DC50 [1]: < 10 nM

CNc1cc(N2CCc3c(-c4ncc(CN5CC6(CCN(C(=O)c7cc(N8CCC(=O)NC8=O)c(C)cn7)CC6(F)F)C5)cc4F)cc(F)cc32)nn2c(C(=O)N[C@@H]3C[C@@H]3F)cnc12 [I-971]
TYK2 MSD OCI-LY10 Dmax % [1]: B (B (90 to >75%)) | DC50 [1]: < 1 nM

CNc1cc(N2CCc3c(-c4ccc(CN5CCC6(CCN(C(=O)c7cc(Cl)cc(N8CCC(=O)NC8=O)c7)CC6)C(F)(F)C5)cn4)cccc32)nn2c(C(=O)N[C@@H]3C[C@@H]3F)cnc12 [I-835]
TYK2 MSD OCI-LY10 Dmax % [1]: B (B (90 to >75%)) | DC50 [1]: < 10 nM

CNc1cc(N2CCc3c(CC4CCN(C5CCC6(CC5)CCN(C(=O)c5ccc(Cl)c(N7CCC(=O)NC7=O)c5)CC6)CC4(F)F)cccc32)nn2c(C(=O)N[C@@H]3C[C@@H]3F)cnc12 (stereo partly shown) [I-686]
TYK2 MSD OCI-LY10 Dmax % (OCI-LY10 cells): B (B (90 to >75%)) | DC50 (OCI-LY10 cells): < 10 nM

CNc1cc(N2CCc3c(-c4ccc(CN5CC6(CCN(C(=O)c7ccc(Cl)c(C8CCC(=O)NC8=O)c7)CC6(F)F)C5)cn4)cccc32)nn2c(C(=O)N[C@@H]3C[C@@H]3F)cnc12 (stereo partly shown) [I-502]
TYK2 MSD OCI-LY10 Dmax % (OCI-LY10 cells): A (A (>90%)) | DC50 (OCI-LY10 cells): < 1 nM

CNc1cc(N2CCc3c(-c4ccc(CN5CCC6(CC5)CN(C(=O)c5ccc(Cl)c(N7CCC(=O)NC7=O)c5)CC6(F)F)cn4)cccc32)nn2c(C(=O)N[C@@H]3C[C@@H]3F)cnc12 [I-847]
TYK2 MSD OCI-LY10 Dmax % [1]: A (A (>90%)) | DC50 [1]: < 1 nM

CNc1cc(N2CCc3c(-c4ccc(CN5CC6(CCN(Cc7ccc(N8CCC(=O)NC8=O)c(Cl)c7)CC6(F)F)C5)cn4)cccc32)nn2c(C(=O)N[C@H]3C[C@H]3F)cnc12 [I-87]
TYK2 MSD OCI-LY10 Dmax % [1]: D (D (<50%)) | DC50 [1]: < 10 nM

CNc1cc(N2CCc3c(CN4CCC(N5CCC6(CC5)CN(C(=O)c5ccc(Cl)c(N7CCC(=O)NC7=O)c5)C6)C(F)(F)C4)cccc32)nn2c(C(=O)N[C@@H]3C[C@@H]3F)cnc12 (stereo partly shown) [I-855]
TYK2 MSD OCI-LY10 Dmax % [1]: A (A (>90%)) | DC50 [1]: < 1 nM

CNc1cc(N2CCc3c(CN4CCC(N5CCC6(CCN(Cc7ccc(Cl)c(N8CCC(=O)NC8=O)c7)CC6)CC5)C(F)(F)C4)cccc32)nn2c(C(=O)N[C@@H]3C[C@@H]3F)cnc12 (stereo partly shown) [I-844]
TYK2 MSD OCI-LY10 Dmax % [1]: B (B (90 to >75%)) | DC50 [1]: < 10 nM

CNc1cc(N2CCc3c(-c4ccc(CN5CCC(N6CCN(CCc7ccc(Cl)c(C8CCC(=O)NC8=O)c7)CC6)C(F)(F)C5)cn4)cccc32)nn2c(C(=O)NC3CC3F)cnc12 (stereo not shown) [I-902]
TYK2 MSD OCI-LY10 Dmax % [1]: B (B (90 to >75%)) | DC50 [1]: < 10 nM

CNc1cc(N2CCc3c(-c4ncc(CN5CC6(CCN(C(=O)c7cc(N8CCC(=O)NC8=O)c(C)c(Cl)c7F)CC6(F)F)C5)cc4F)cccc32)nn2c(C(=O)N[C@@H]3CC[C@H]3OC)cnc12 [I-1133]
TYK2 MSD OCI-LY10 Dmax % [1]: A (A (>90%)) | DC50 [1]: < 1 nM

CNc1cc(N2CCc3c(-c4ccc(CN5CC(F)(F)C6(CCN(C(=O)c7ccc(Cl)c(N8CCC(=O)NC8=O)c7)CC6)C5)cn4)cccc32)nn2c(C(=O)N[C@@H]3C[C@@H]3F)cnc12 [I-849]
TYK2 MSD OCI-LY10 Dmax % [1]: B (B (90 to >75%)) | DC50 [1]: < 10 nM

CNc1cc(N2CCc3c(-c4ccc(N5CCN(C(=O)c6ccc(Cl)c(N7CCC(=O)NC7=O)c6)CC5)cn4)cccc32)nn2c(C(=O)N[C@@H]3C[C@@H]3F)cnc12 [I-90]
TYK2 MSD OCI-LY10 Dmax % [1]: D (D (<50%)) | DC50 [1]: < 10 nM

CNc1cc(N2CCc3c(-c4ccc(CN5CC6(CCC(N(C)c7ccc(Cl)c(N8CCC(=O)NC8=O)c7)CC6)C5)cn4)cccc32)nn2c(C(=O)N[C@@H]3CC[C@H]3OC)cnc12 [I-752]
TYK2 MSD OCI-LY10 Dmax % (OCI-LY10 cells): B (B (90 to >75%)) | DC50 (OCI-LY10 cells): < 10 nM

CNc1cc(N2CCc3c(-c4ccc(CC5CC6(CCN(C(c7ccc(Cl)c(N8CCC(=O)NC8=O)c7)C(F)(F)F)CC6)C5)cn4)cccc32)nn2c(C(=O)N[C@@H]3C[C@@H]3F)cnc12 (stereo partly shown) [I-272]
TYK2 MSD OCI-LY10 Dmax % [1]: D (D (<50%)) | DC50 [1]: > 100 nM

CNc1cc(N2CCc3c(CN4CCC(N5CC6(CCN(C(=O)c7ccc(Cl)c(N8CCC(=O)NC8=O)c7)CC6)C5)C(F)(F)C4)cccc32)nn2c(C(=O)N[C@@H]3C[C@@H]3F)cnc12 (stereo partly shown) [I-840]
TYK2 MSD OCI-LY10 Dmax % [1]: A (A (>90%)) | DC50 [1]: < 1 nM

CNc1cc(N2CCc3c(CC4CCC(N5CCC(N6CCN(C(=O)c7ccc(Cl)c(N8CCC(=O)NC8=O)c7)CC6)C(F)(F)C5)CC4)cccc32)nn2c(C(=O)NC3CC3F)cnc12 (stereo not shown) [I-708]
TYK2 MSD OCI-LY10 Dmax % (OCI-LY10 cells): D (D (<50%)) | DC50 (OCI-LY10 cells): < 1 nM

CNc1cc(N2CCc3c(CN4CCC(N5CCC6(CCN(C(=O)c7ccc(Cl)c(N8CCC(=O)NC8=O)c7)CC6)CC5)CC4)cccc32)nn2c(C(=O)N[C@@H]3C[C@@H]3F)cnc12 [I-802]
TYK2 MSD OCI-LY10 Dmax % [1]: B (B (90 to >75%)) | DC50 [1]: < 10 nM

CNc1cc(N2CCc3c(N4CC(CN5CCC6(CCN(C(=O)c7ccc(Cl)c(N8CCC(=O)NC8=O)c7)CC6)C(F)(F)C5)C4)cccc32)nn2c(C(=O)N[C@@H]3C[C@@H]3F)cnc12 [I-783]
TYK2 MSD OCI-LY10 Dmax % (OCI-LY10 cells): B (B (90 to >75%)) | DC50 (OCI-LY10 cells): < 10 nM

CNc1cc(N2CCc3c(CN4CCC(CN5CCN(C(=O)c6ccc(Cl)c(N7CCC(=O)NC7=O)c6)CC5)C(F)(F)C4)cccc32)nn2c(C(=O)N[C@@H]3C[C@@H]3F)cnc12 (stereo partly shown) [I-761]
TYK2 MSD OCI-LY10 Dmax % (OCI-LY10 cells): B (B (90 to >75%)) | DC50 (OCI-LY10 cells): < 10 nM
